Measurements reported in ChEMBL document CHEMBL1201862, “PubChem BioAssay data set” (2004).
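Values below derive from 48-hour exposures of cells grown in 96-well plates, with endpoints linearly interpolated between the two concentrations bracketing the appropriate inhibition level. GI50 = concentration required for 50% inhibition of growth.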 Activity calls are given as the source filed them. Cut-off read from the data, not from the text of the source: active = GI50 up to about 1.1 µM and inactive = higher.

What was measured:
Experiment in all cases: NCI anticancer screen, dose series, 48 h
A498 = test system: A498
BT-549 = test system: BT-549
CCRF-CEM = test system: CCRF-CEM
HCT-116 = test system: HCT-116
HOP-62 = test system: HOP-62
Hs-578T = test system: Hs-578T
K562 = test system: K562
M14 = test system: M14
MDA-MB-435 = test system: MDA-MB-435
NCI-H23 = test system: NCI-H23
NCI-H460 = test system: NCI-H460
NCI-H522 = test system: NCI-H522
OVCAR-8 = test system: OVCAR-8
PC-3 = test system: PC-3
SK-MEL-2 = test system: SK-MEL-2
SK-MEL-5 = test system: SK-MEL-5
SN12C = test system: SN12C
UO-31 = test system: UO-31
SW-620 = test system: SW-620
SNB-75 = test system: SNB-75

Measured: GI50

O=C(CCc1cccc(O)c1)NCCc1cccc(O)c1
inactive: A498 > 100 µM | BT-549 > 100 µM | CCRF-CEM > 100 µM | HCT-116 > 100 µM | HOP-62 > 100 µM | Hs-578T > 100 µM | K562 > 100 µM | M14 > 100 µM | MDA-MB-435 > 100 µM | NCI-H23 > 100 µM | NCI-H460 > 100 µM | NCI-H522 > 100 µM | OVCAR-8 > 100 µM | PC-3 > 100 µM | SK-MEL-2 > 100 µM | SK-MEL-5 > 100 µM | SN12C > 100 µM | UO-31 > 100 µM

Cc1ccc2c(c1)C(=O)N1CCC[C@H]1C=N2
inactive: A498 34 µM | BT-549 17.8 µM | CCRF-CEM 4.02 µM | HCT-116 30 µM | HOP-62 27.7 µM | Hs-578T 15.3 µM | K562 7.76 µM | M14 16.9 µM | MDA-MB-435 16.7 µM | NCI-H23 16.5 µM | NCI-H460 20.4 µM | NCI-H522 5.13 µM | OVCAR-8 23.9 µM | PC-3 17.7 µM | SK-MEL-2 17.5 µM | SK-MEL-5 11.1 µM | SN12C 23 µM | SW-620 23.4 µM | UO-31 5.37 µM

O=c1[nH]c(-n2[nH]c3c(c2=O)CCCC3)nc(O)c1-c1ccccc1
inactive: A498 > 100 µM | BT-549 > 100 µM | CCRF-CEM > 100 µM | HCT-116 > 100 µM | Hs-578T > 100 µM | K562 > 100 µM | M14 > 100 µM | MDA-MB-435 > 100 µM | NCI-H23 > 100 µM | NCI-H460 > 100 µM | NCI-H522 > 100 µM | OVCAR-8 > 100 µM | PC-3 > 100 µM | SK-MEL-2 > 100 µM | SK-MEL-5 > 100 µM | SN12C > 100 µM | SW-620 > 100 µM | UO-31 > 100 µM

Nc1ccc(Cc2c(N)[nH]c(=O)[nH]c2=O)cc1
inactive: A498 47.3 µM | BT-549 > 100 µM | CCRF-CEM 39.5 µM | HCT-116 > 100 µM | Hs-578T > 100 µM | K562 > 100 µM | M14 > 100 µM | MDA-MB-435 > 100 µM | NCI-H23 > 100 µM | NCI-H460 > 100 µM | NCI-H522 > 100 µM | OVCAR-8 > 100 µM | PC-3 > 100 µM | SK-MEL-2 > 100 µM | SK-MEL-5 > 100 µM | SN12C > 100 µM | SW-620 > 100 µM | UO-31 > 100 µM

O=c1[nH]c(=O)n(C2CC(O)C(CO)O2)cc1C1=NC1 (stereo not given)
inactive: A498 > 100 µM | BT-549 > 100 µM | HCT-116 > 100 µM | HOP-62 > 100 µM | Hs-578T > 100 µM | M14 > 100 µM | MDA-MB-435 > 100 µM | NCI-H23 > 100 µM | NCI-H460 > 100 µM | OVCAR-8 > 100 µM | SK-MEL-2 > 100 µM | SK-MEL-5 > 100 µM | SN12C > 100 µM | SNB-75 81.3 µM | SW-620 > 100 µM | UO-31 > 100 µM

COC(=O)C1=C(O)C(C(=O)OC)[C@]2(O)[C@H](C(=O)OC)[C@H]1C[C@@H](c1c(Cl)cccc1Cl)[C@H]2C(=O)OC (stereo not given in full)
inactive: A498 2 µM | BT-549 1.88 µM | HCT-116 1.97 µM | HOP-62 3.07 µM | Hs-578T 3.35 µM | K562 2.05 µM | M14 1.55 µM | MDA-MB-435 1.33 µM | NCI-H23 2.02 µM | NCI-H460 2.31 µM | OVCAR-8 1.79 µM | PC-3 1.99 µM | SK-MEL-2 1.49 µM | SK-MEL-5 1.66 µM | SN12C 2.23 µM | SNB-75 2.23 µM | SW-620 2.55 µM | UO-31 1.65 µM

O=c1c2ccccc2nc(Nc2cccc(Cl)c2)n1/N=C/C=C/c1ccccc1
inactive: BT-549 > 100 µM | CCRF-CEM > 100 µM | HCT-116 60.4 µM | HOP-62 85.5 µM | Hs-578T 62.8 µM | K562 > 100 µM | M14 > 100 µM | MDA-MB-435 > 100 µM | NCI-H23 71.9 µM | NCI-H460 48.2 µM | NCI-H522 50.5 µM | OVCAR-8 39.2 µM | PC-3 33.7 µM | SK-MEL-2 > 100 µM | SK-MEL-5 89.3 µM | SN12C 52.6 µM | SNB-75 45.4 µM | SW-620 51.5 µM | UO-31 > 100 µM

CSC1=C(C#N)C(=O)N(c2ccc(Cl)cc2)C(=O)C1C#N (stereo not given)
inactive: A498 74.6 µM | BT-549 > 100 µM | CCRF-CEM 44.9 µM | HCT-116 > 100 µM | HOP-62 > 100 µM | Hs-578T 77.8 µM | K562 78.9 µM | M14 96.4 µM | MDA-MB-435 > 100 µM | NCI-H23 > 100 µM | NCI-H460 > 100 µM | NCI-H522 > 100 µM | PC-3 > 100 µM | SK-MEL-2 > 100 µM | SK-MEL-5 > 100 µM | SN12C > 100 µM | SW-620 > 100 µM | UO-31 > 100 µM

O=c1[nH]c2nc3ccccc3c(=O)n2/c1=C/c1ccccc1
inactive: BT-549 17.1 µM | CCRF-CEM 40.3 µM | HCT-116 31.1 µM | HOP-62 > 100 µM | Hs-578T 29 µM | M14 47.9 µM | MDA-MB-435 21.9 µM | NCI-H23 30.3 µM | NCI-H522 17.1 µM | OVCAR-8 28 µM | PC-3 92 µM | SK-MEL-2 > 100 µM | SK-MEL-5 48.9 µM | SN12C 25.1 µM | SNB-75 30.5 µM | SW-620 17.7 µM | UO-31 78 µM

O=c1oc2ccccc2n1CCCn1c(=O)oc2ccccc21
inactive: A498 > 100 µM | BT-549 > 100 µM | CCRF-CEM > 100 µM | HCT-116 > 100 µM | HOP-62 > 100 µM | Hs-578T > 100 µM | K562 > 100 µM | M14 > 100 µM | MDA-MB-435 > 100 µM | NCI-H23 > 100 µM | NCI-H460 > 100 µM | OVCAR-8 > 100 µM | PC-3 > 100 µM | SK-MEL-2 > 100 µM | SK-MEL-5 > 100 µM | SN12C > 100 µM | SNB-75 44.5 µM | SW-620 > 100 µM

COC(=O)C(Cc1ccccc1)NC(=O)CSc1nnc(COc2ccc(Cl)cc2)n1-c1ccccc1 (stereo not given)
inactive: A498 17 µM | BT-549 27.4 µM | CCRF-CEM 16.8 µM | HCT-116 23.1 µM | HOP-62 15 µM | Hs-578T 26.7 µM | K562 27.4 µM | M14 20.2 µM | MDA-MB-435 19.1 µM | NCI-H23 22.3 µM | NCI-H460 16.5 µM | PC-3 22.8 µM | SK-MEL-2 17.7 µM | SK-MEL-5 17.1 µM | SN12C 21.2 µM | SNB-75 23.8 µM | SW-620 35.9 µM | UO-31 1.83 µM

CC(C)(C)c1ccccc1N1C(=O)c2ccc3c4c(ccc(c24)C1=O)N(c1ccccc1C(C)(C)C)C3=O
inactive: BT-549 > 100 µM | CCRF-CEM > 100 µM | HCT-116 > 100 µM | HOP-62 > 100 µM | Hs-578T 3.03 µM | K562 > 100 µM | M14 > 100 µM | MDA-MB-435 > 100 µM | NCI-H23 > 100 µM | NCI-H460 > 100 µM | NCI-H522 5.07 µM | OVCAR-8 > 100 µM | PC-3 20 µM | SK-MEL-2 > 100 µM | SK-MEL-5 > 100 µM | SN12C > 100 µM | SW-620 > 100 µM | UO-31 > 100 µM

C=CC1ON(C)CCc2cc(OC)c(OC)cc21 (stereo not given)
inactive: A498 > 100 µM | BT-549 > 100 µM | CCRF-CEM > 100 µM | HCT-116 > 100 µM | HOP-62 > 100 µM | Hs-578T > 100 µM | K562 > 100 µM | M14 > 100 µM | MDA-MB-435 > 100 µM | NCI-H23 > 100 µM | NCI-H460 > 100 µM | NCI-H522 > 100 µM | OVCAR-8 > 100 µM | PC-3 > 100 µM | SK-MEL-5 > 100 µM | SN12C > 100 µM | SNB-75 > 100 µM | SW-620 > 100 µM | UO-31 > 100 µM

Cc1ccc(N/C(=C(/C(Cl)=C(Cl)Cl)[N+](=O)[O-])n2nnc3ccccc32)cc1
inactive: BT-549 17.7 µM | CCRF-CEM 7.06 µM | HCT-116 30 µM | HOP-62 18.2 µM | Hs-578T 25.8 µM | K562 23.6 µM | M14 16.6 µM | MDA-MB-435 20.1 µM | NCI-H23 21.5 µM | NCI-H460 18 µM | OVCAR-8 18.8 µM | PC-3 17.5 µM | SK-MEL-2 17.7 µM | SN12C 20.4 µM | SNB-75 18.8 µM | SW-620 20.7 µM | UO-31 16.6 µM

CN1C(=O)N/C(=C\c2ccc(S(=O)(=O)N/N=C\C(O)C(O)C(O)CO)cc2)C1=O (stereo not given)
inactive: A498 > 100 µM | BT-549 > 100 µM | CCRF-CEM > 100 µM | HCT-116 > 100 µM | HOP-62 > 100 µM | Hs-578T > 100 µM | K562 > 100 µM | M14 > 100 µM | MDA-MB-435 > 100 µM | NCI-H23 > 100 µM | NCI-H460 > 100 µM | OVCAR-8 > 100 µM | PC-3 > 100 µM | SK-MEL-2 > 100 µM | SK-MEL-5 > 100 µM | SN12C > 100 µM | SNB-75 > 100 µM | SW-620 > 100 µM | UO-31 > 100 µM
